Converted amounts (≈) assume the structure as drawn.

Here are results for 21 compounds from ChEMBL document CHEMBL1143801, “Synthesis, SAR and antibacterial studies on novel chalcone oxazolidinone hybrids” (2007).

What all share (type): functional
The test system of test [1] is Staphylococcus aureus. The test is described as follows: Antibacterial activity against Staphylococcus aureus ATCC 33591.
Test [2] relates to Staphylococcus aureus. The test is described as follows: Antibacterial activity against Staphylococcus aureus ATCC 49951.
For test [3], the system named is Staphylococcus aureus. Description: Antibacterial activity against Staphylococcus aureus ATCC 29213.
Test [4] has as its system Enterococcus faecalis. Description: Antibacterial activity against Enterococcus faecalis ATCC 29212.
The subject of test [5] is Enterococcus faecalis. Description: Antibacterial activity against Enterococcus faecalis NCTC 12201.
In another test the test system is Enterococcus faecium. Description: Antibacterial activity against Enterococcus faecium ATCC 12202.

As to `CC(=O)NC[C@H]1CN(c2ccc(C(=O)/C=C/c3nccn3C)c(F)c2)C(=O)O1`, the minimum inhibitory concentration (MIC) with Staphylococcus aureus [1], against Staphylococcus aureus [2], against Staphylococcus aureus [3], in the test with Enterococcus faecalis [4], in the test with Enterococcus faecalis [5] and in the test on Enterococcus faecium was 32 µg/mL (≈ 82.8 µM) throughout.

`CC(=O)NC[C@H]1CN(c2ccc(C(=O)/C=C/c3ncc[nH]3)c(F)c2)C(=O)O1`: the MIC against Staphylococcus aureus [1], against Staphylococcus aureus [2], against Staphylococcus aureus [3], with Enterococcus faecalis [4], in the test on Enterococcus faecalis [5] and with Enterococcus faecium was 16 µg/mL (≈ 43 µM) each time.

With `CC(=O)NC[C@H]1CN(c2ccc(C(=O)/C=C/c3ccco3)cc2)C(=O)O1`, the MIC in the test with Staphylococcus aureus [1] stood at 32 µg/mL (≈ 90.3 µM); with Staphylococcus aureus [2], 16 µg/mL (≈ 45.2 µM); with Staphylococcus aureus [3], 16 µg/mL (≈ 45.2 µM); in the test on Enterococcus faecalis [4], 32 µg/mL (≈ 90.3 µM); with Enterococcus faecalis [5] it was 32 µg/mL (≈ 90.3 µM); against Enterococcus faecium it was 32 µg/mL (≈ 90.3 µM).

Take `CN[C@H](CC(C)C)C(=O)N[C@H]1C(=O)N[C@@H](CC(N)=O)C(=O)N[C@H]2C(=O)N[C@H]3C(=O)N[C@H](C(=O)N[C@H](C(=O)O)c4cc(O)cc(O)c4-c4cc3ccc4O)[C@H](O)c3ccc(c(Cl)c3)Oc3cc2cc(c3O[C@@H]2O[C@H](CO)[C@@H](O)[C@H](O)[C@H]2O[C@H]2C[C@](C)(N)[C@H](O)[C@H](C)O2)Oc2ccc(cc2Cl)[C@H]1O` [VANCOMYCIN]: the MIC was 2 µg/mL (≈ 1.38 µM) against Enterococcus faecalis [4], above 32 µg/mL in the test on Enterococcus faecalis [5] and above 32 µg/mL in the test on Enterococcus faecium.

Take `CC(=O)NC[C@H]1CN(c2ccc(/C=C/C(=O)c3c(F)cc(Cl)cc3Cl)cc2)C(=O)O1`: the minimum inhibitory concentration (MIC) against Staphylococcus aureus [1], against Staphylococcus aureus [2], against Staphylococcus aureus [3], against Enterococcus faecalis [4], against Enterococcus faecalis [5] and against Enterococcus faecium was above 32 µg/mL each time.

Regarding `CC(=O)NC[C@H]1CN(c2ccc(C(=O)/C=C/c3ccccc3)cc2)C(=O)O1`, the MIC against Staphylococcus aureus [1], in the test with Staphylococcus aureus [2], with Staphylococcus aureus [3], in the test with Enterococcus faecalis [4], in the test on Enterococcus faecalis [5] and with Enterococcus faecium was above 32 µg/mL in each case.

Regarding `COC(=O)c1ccc(/C=C/C(=O)c2ccc(N3C[C@H](CNC(C)=O)OC3=O)cc2)cc1`, the minimum inhibitory concentration (MIC) in the test with Staphylococcus aureus [1], with Staphylococcus aureus [2], with Staphylococcus aureus [3], in the test on Enterococcus faecalis [4], with Enterococcus faecalis [5] and in the test on Enterococcus faecium was above 32 µg/mL throughout.

With `CC(=O)NC[C@H]1CN(c2ccc(C(=O)/C=C/c3ccccn3)c(F)c2)C(=O)O1`, the MIC in the test on Staphylococcus aureus [1] worked out at 4 µg/mL (≈ 10.4 µM); against Staphylococcus aureus [2], 4 µg/mL (≈ 10.4 µM); in the test with Staphylococcus aureus [3] it was 8 µg/mL (≈ 20.9 µM); with Enterococcus faecalis [4] it was 16 µg/mL (≈ 41.7 µM); in the test with Enterococcus faecalis [5] it was 16 µg/mL (≈ 41.7 µM); with Enterococcus faecium, 16 µg/mL (≈ 41.7 µM).

On to `CC(=O)NC[C@H]1CN(c2ccc(N3CCOCC3)c(F)c2)C(=O)O1` [LINEZOLID], for which the results for the MIC with Staphylococcus aureus [1] and with Enterococcus faecium were 1 µg/mL (≈ 2.96 µM) and 2 µg/mL (≈ 5.93 µM), respectively.

Consider `COc1ccc(/C=C/C(=O)c2ccc(N3C[C@H](CNC(C)=O)OC3=O)cc2)cc1OC`, for which the MIC against Staphylococcus aureus [1], in the test with Staphylococcus aureus [2], in the test on Staphylococcus aureus [3], against Enterococcus faecalis [4], with Enterococcus faecalis [5] and with Enterococcus faecium was above 32 µg/mL throughout.

As to `COc1ccc(C(=O)/C=C/c2ccc(N3C[C@H](CNC(C)=O)OC3=O)cc2)cc1`, the MIC with Staphylococcus aureus [1], in the test on Staphylococcus aureus [2], against Staphylococcus aureus [3], against Enterococcus faecalis [4], against Enterococcus faecalis [5] and against Enterococcus faecium was above 32 µg/mL each time.

Take `CC(=O)NC[C@H]1CN(c2ccc(/C=C/C(=O)c3ccccc3)cc2)C(=O)O1`: the MIC in the test with Staphylococcus aureus [1], in the test with Staphylococcus aureus [2], against Staphylococcus aureus [3], with Enterococcus faecalis [4], with Enterococcus faecalis [5] and in the test with Enterococcus faecium was above 32 µg/mL in each case.

Take `CC(=O)NC[C@H]1CN(c2ccc(/C=C/C(=O)c3ccc(C)cc3)cc2)C(=O)O1`: the MIC in the test with Staphylococcus aureus [1] was 32 µg/mL (≈ 84.6 µM); in the test with Staphylococcus aureus [2], 32 µg/mL (≈ 84.6 µM); against Staphylococcus aureus [3] it was above 32 µg/mL; against Enterococcus faecalis [4], 32 µg/mL (≈ 84.6 µM); in the test on Enterococcus faecalis [5] it was 32 µg/mL (≈ 84.6 µM); in the test on Enterococcus faecium, 32 µg/mL (≈ 84.6 µM).

As for `COC(=S)NC[C@H]1CN(c2ccc(C(=O)/C=C/c3ccccn3)c(F)c2)C(=O)O1`, the minimum inhibitory concentration (MIC) was 0.25 µg/mL (≈ 0.602 µM) against Staphylococcus aureus [1]; 1 µg/mL (≈ 2.41 µM) in the test on Staphylococcus aureus [2]; 0.5 µg/mL (≈ 1.2 µM) in the test on Staphylococcus aureus [3]; 2 µg/mL (≈ 4.81 µM) in the test with Enterococcus faecalis [4]; 1 µg/mL (≈ 2.41 µM) with Enterococcus faecalis [5]; 2 µg/mL (≈ 4.81 µM) with Enterococcus faecium.

`CC(=O)NC[C@H]1CN(c2ccc(/C=C/C(=O)c3ccc([N+](=O)[O-])cc3)cc2)C(=O)O1`: the minimal inhibitory concentration (MIC) against Staphylococcus aureus [1], in the test on Staphylococcus aureus [2], against Staphylococcus aureus [3], with Enterococcus faecalis [4], against Enterococcus faecalis [5] and against Enterococcus faecium was 32 µg/mL (≈ 78.2 µM) in each case.

For `CC(=O)NC[C@H]1CN(c2ccc(C(=O)/C=C/c3ccc(F)cc3)cc2)C(=O)O1`, the MIC against Staphylococcus aureus [1], against Staphylococcus aureus [2], against Staphylococcus aureus [3], in the test with Enterococcus faecalis [4], with Enterococcus faecalis [5] and in the test on Enterococcus faecium was above 32 µg/mL in each case.

Turning to `COc1cc(/C=C/C(=O)c2ccc(N3C[C@H](CNC(C)=O)OC3=O)cc2)cc(OC)c1OC`, the minimum inhibitory concentration (MIC) in the test with Staphylococcus aureus [1], in the test with Staphylococcus aureus [2], in the test with Staphylococcus aureus [3], in the test on Enterococcus faecalis [4], against Enterococcus faecalis [5] and against Enterococcus faecium was above 32 µg/mL throughout.

As for `CC(=O)NC[C@H]1CN(c2ccc(C(=O)/C=C/c3ccccn3)cc2)C(=O)O1`, the MIC was found to be 32 µg/mL (≈ 87.6 µM) with Staphylococcus aureus [1]; 32 µg/mL (≈ 87.6 µM) against Staphylococcus aureus [2]; 32 µg/mL (≈ 87.6 µM) against Staphylococcus aureus [3]; 64 µg/mL (≈ 175 µM) with Enterococcus faecalis [4]; 64 µg/mL (≈ 175 µM) with Enterococcus faecalis [5]; 64 µg/mL (≈ 175 µM) in the test on Enterococcus faecium.

Consider `CC(=O)NC[C@H]1CN(c2ccc(C(=O)/C=C/c3cccs3)c(F)c2)C(=O)O1`, for which the MIC against Staphylococcus aureus [1], against Staphylococcus aureus [2], with Staphylococcus aureus [3], in the test with Enterococcus faecalis [4], in the test on Enterococcus faecalis [5] and against Enterococcus faecium was 32 µg/mL (≈ 82.4 µM) in each case.

For `CC(=O)NC[C@H]1CN(c2ccc(C(=O)/C=C/c3ccco3)c(F)c2)C(=O)O1`, the MIC against Staphylococcus aureus [1] amounted to 8 µg/mL (≈ 21.5 µM); with Staphylococcus aureus [2], 8 µg/mL (≈ 21.5 µM); against Staphylococcus aureus [3] it was 8 µg/mL (≈ 21.5 µM); against Enterococcus faecalis [4] it was 16 µg/mL (≈ 43 µM); against Enterococcus faecalis [5] it was 16 µg/mL (≈ 43 µM); in the test on Enterococcus faecium, 16 µg/mL (≈ 43 µM).

As to `CC(=O)NC[C@H]1CN(c2ccc(/C=C/C(=O)c3cccc(F)c3)cc2)C(=O)O1`, the MIC is 64 µg/mL (≈ 167 µM) in the test with Staphylococcus aureus [1]; above 64 µg/mL in the test on Staphylococcus aureus [2]; above 64 µg/mL against Staphylococcus aureus [3]; above 64 µg/mL in the test with Enterococcus faecalis [4]; above 64 µg/mL in the test on Enterococcus faecalis [5]; above 64 µg/mL against Enterococcus faecium.

As usually defined, the MIC is the lowest concentration that inhibits growth of the organism. A high value points to a need for much substance.
